Inhibition data for 15 compounds are collected here from patent publication US7524853B2 (Solvay Pharmaceuticals B.V., priority 2003, dated 2009).

Format in all cases: cell-based
Assay [1] deals with T1, 17β-hydroxysteroid dehydrogenase type 2 (17β-HSD type 2) (Homo sapiens, UniProt P37059).
T1 construct: expressed in transfected cells; host or cells: MCF-7
T1 sequence (P37059 1-387): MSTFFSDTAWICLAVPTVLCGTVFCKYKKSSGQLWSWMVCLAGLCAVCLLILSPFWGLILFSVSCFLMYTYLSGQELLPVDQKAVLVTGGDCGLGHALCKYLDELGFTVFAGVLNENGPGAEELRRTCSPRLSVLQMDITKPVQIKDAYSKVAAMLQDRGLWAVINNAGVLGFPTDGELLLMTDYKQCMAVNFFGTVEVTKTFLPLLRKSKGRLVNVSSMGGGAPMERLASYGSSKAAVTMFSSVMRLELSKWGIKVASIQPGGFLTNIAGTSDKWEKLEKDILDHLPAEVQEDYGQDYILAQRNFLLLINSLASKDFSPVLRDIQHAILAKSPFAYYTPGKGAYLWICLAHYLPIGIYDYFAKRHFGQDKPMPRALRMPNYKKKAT
The assay can be described thus: Inhibition of 17β-HSD type 2 in MCF-7 cells stably expressing the isoenzyme (tritium labeled estradiol conversion, HPLC). The following applies: MCF7, MCF-7 cells expressing 17β-HSD type 2, 2 nM tritium labeled estradiol; for inhibition at 1 µM: 1 μM test compound, read-out: % Inhibition HSD2 1 μM; for inhibition at 10 µM: 10 μM test compound, read-out: % Inhibition HSD2 10 μM. In short, it runs like this:
(§1)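 MCF-7 lines stably expressing each 17β-HSD isoenzyme incubated in growth medium with compound at two concentrations and 2 nM tritiated substrate (estrone, type 1; estradiol, type 2; androstenedione, type 3). Reaction stopped with TCA; conversion measured by HPLC with flow scintillation, inhibition relative to compound-free control.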

The target of assay [2] is T2, 17β-hydroxysteroid dehydrogenase type 3 (17β-HSD type 3) (Homo sapiens, UniProt P37058).
T2 construct: expressed in transfected cells; host or cells: MCF-7
T2 sequence (P37058 1-310): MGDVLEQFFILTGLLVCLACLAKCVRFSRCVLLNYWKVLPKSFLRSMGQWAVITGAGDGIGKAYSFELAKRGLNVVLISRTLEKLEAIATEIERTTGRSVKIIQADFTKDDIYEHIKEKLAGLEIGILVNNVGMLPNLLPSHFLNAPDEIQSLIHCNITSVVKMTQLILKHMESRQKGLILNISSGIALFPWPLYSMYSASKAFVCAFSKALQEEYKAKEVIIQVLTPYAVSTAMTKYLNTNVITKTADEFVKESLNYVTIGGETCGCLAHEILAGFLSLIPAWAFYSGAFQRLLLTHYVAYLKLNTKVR
The assay can be described thus: Inhibition of 17β-HSD type 3 in MCF-7 cells stably expressing the isoenzyme (tritium labeled androstenedione conversion, HPLC). The following applies: MCF7, MCF-7 cells expressing 17β-HSD type 3, 2 nM tritium labeled androstenedione; for inhibition at 1 µM: 1 μM test compound, read-out: % Inhibition HSD3 1 μM; for inhibition at 10 µM: 10 μM test compound, read-out: % Inhibition HSD3 10 μM. The gist of the method: as §1

The target of assay [3] is T3, 17β-hydroxysteroid dehydrogenase type 1 (17β-HSD type 1) (Homo sapiens, UniProt P14061).
T3 construct: expressed in transfected cells; host or cells: MCF-7
T3 sequence (P14061 1-328): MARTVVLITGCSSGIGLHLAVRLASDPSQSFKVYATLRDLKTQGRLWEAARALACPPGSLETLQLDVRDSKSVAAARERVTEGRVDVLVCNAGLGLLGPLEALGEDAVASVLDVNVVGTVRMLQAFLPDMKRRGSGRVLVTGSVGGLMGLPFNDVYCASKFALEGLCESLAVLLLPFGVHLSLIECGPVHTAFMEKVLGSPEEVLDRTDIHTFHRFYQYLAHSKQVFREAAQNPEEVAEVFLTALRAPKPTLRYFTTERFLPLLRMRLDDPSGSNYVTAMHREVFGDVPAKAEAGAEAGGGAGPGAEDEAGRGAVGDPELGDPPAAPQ
The assay can be described thus: Inhibition of 17β-HSD type 1 in MCF-7 cells stably expressing the isoenzyme (tritium labeled estrone conversion, HPLC). The following applies: MCF7, MCF-7 cells expressing 17β-HSD type 1, 2 nM tritium labeled estrone; for inhibition at 1 µM: 1 μM test compound, read-out: % Inhibition HSD1 1 μM; for inhibition at 10 µM: 10 μM test compound, read-out: % Inhibition HSD1 10 μM. In short, it runs like this:
as §1

What is called inhibition is the drop in the measured response relative to a control, in per cent. For `COc1cc(-c2nc3sc4c(c3c(=O)n2CC2CCCO2)CCCC4=O)cc(OC)c1OC` (stereo not drawn) [No. 131, 3-(Tetrahydro-furan-2-ylmethyl)-2-(3,4,5-trimethoxyphenyl)-6,7-dihydro-3H,5H-benzo[4,5]thieno[2,3-d]pyrimidine-4,8-dione], the inhibition at 1 µM came to 31.2% in assay [1], 30.9% in assay [2] and 37.7% in assay [3]. The inhibition at 10 µM in assay [1] came to 40.1%; in assay [2] it was 80.1%; in assay [3] it was 84.7%.

With `CCCc1nc2sc3c(OC(C)=O)cccc3c2c(=O)n1Cc1cc(Br)ccc1OC` [No. 99], the inhibition at 1 µM is 46.1% in assay [1], 15.9% in assay [2] and 21.8% in assay [3]. Besides, the values for the inhibition at 10 µM in assay [1], in assay [2] and in assay [3] were 85.4%, 68.9% and 64.5%, respectively.

For `O=c1c2c(nc(-c3ccccc3)n1Cc1ccccc1)sc1c(O)cccc12` [No. 60, 3-Benzyl-8-hydroxy-2-phenyl-3H-benzo[4,5]thieno[2,3-d]pyrimidine-4-one], the figures for the inhibition at 1 µM in assay [1], in assay [2] and in assay [3] were 44.2%, 10% and 16.3%, respectively. Moreover, the inhibition at 10 µM in assay [1] came out at 76.9%; in assay [2], 45.7%; in assay [3], 36%.

With `O=c1c2c(nc(-c3cccs3)n1Cc1ccccc1)sc1c(O)cccc12` [No. 67, 3-Benzyl-8-hydroxy-2-thiophen-2-yl-3H-benzo[4,5]thieno[2,3-d]pyrimidine-4-one], the inhibition at 1 µM was 55.2% in assay [1], 19.1% in assay [2] and 14.7% in assay [3]. The inhibition at 10 µM in assay [1] was determined as 80.3%; in assay [2], 33.4%; in assay [3] it was 29.6%.

With `COCc1nc2sc3c(Cl)c(C=O)c(C(=O)O)c(O)c3c2c(=O)n1Cc1ccccc1` [No. 35, 3-Benzyl-8-chloro-7-formyl-5-hydroxyl-2-methoxymethyl-4-oxo-benzo[4,5]thieno[2,3-d]pyrimidine-6-carboxylic acid], the values for the inhibition at 1 µM in assay [1], in assay [2] and in assay [3] were -6.8%, 14.7% and 8.8%, respectively. Besides, the values for the inhibition at 10 µM in assay [1], in assay [2] and in assay [3] were 28.7%, 82.3% and 28.6%, respectively.

With `COc1cc(-c2nc3sc4c(c3c(=O)n2CC(C)C)CCCC4)cc(OC)c1OC` [No. 113, 3-Isobutyl-2-(3,4,5-trimethoxyphenyl)-5,6,7,8-tetrahydro-3H-benzo[4,5]thieno[2,3-d]pyrimidin-4-one], the inhibition at 1 µM in assay [1] amounted to 8.2%; in assay [2], 2.7%; in assay [3], 22.2%. Further, the inhibition at 10 µM in assay [1] was 7.7%; in assay [2], 48.9%; in assay [3], 57.6%.

Take `O=C1CCCc2c1sc1nc(-c3cccs3)n(Cc3ccccc3)c(=O)c21` [No. 62, 3-Benzyl-2-thiophen-2-yl-6,7-dihydro-3H,5H-benzo[4,5]thieno[2,3-d]pyrimidine-4,8-dione]: the inhibition at 1 µM in assay [1] came to 18.9%; in assay [2], 18%; in assay [3], 25.8%. For the same compound, the inhibition at 10 µM was found to be 26.4% in assay [1], 28% in assay [2] and 32% in assay [3].

For `COCCn1c(-c2cc(OC)c(OC)c(OC)c2Br)nc2sc3c(c2c1=O)CCC(Br)C3=O` (stereo not drawn) [No. 111, 7-Bromo-2-(2-bromo-3,4,5-trimethoxyphenyl)-3-(2-methoxyethyl)-6,7-dihydro-3H,5H-benzo[4,5]thieno[2,3-d]pyrimidine-4,8-dione], the inhibition at 1 µM in assay [1] was determined as 24.7%; in assay [2] it was 7.3%; in assay [3] it was 23.8%. Further, the inhibition at 10 µM in assay [1] was 48.7%; in assay [2] it was 41.5%; in assay [3] it was 56.9%.

Take `COc1ccc(-c2nc3sc4cc(C=O)ccc4c3c(=O)n2Cc2ccccc2)cc1` [No. 17, 3-Benzyl-2-(p-methoxyphenyl)-4-oxo-3,4-dihydro-benzo[4,5]thieno[2,3-d]pyrimidine-7-carbaldehyde]: the values for the inhibition at 1 µM in assay [1], in assay [2] and in assay [3] were -5.4%, 43.5% and 18.1%, respectively. Besides, the inhibition at 10 µM stood at 20.9% in assay [1], 100% in assay [2] and 48.3% in assay [3].

Regarding `O=c1c2c(nc(-c3cccs3)n1CCO)sc1c(O)c(Br)ccc12` [No. 149, 7-Bromo-8-hydroxy-3-(2-hydroxyethyl)-2-thiophen-2-yl-3H-benzo[4,5]thieno[2,3-d]pyrimidin-4-one], the inhibition at 1 µM worked out at 34.6% in assay [1], 31% in assay [2] and 17.8% in assay [3]. Moreover, the inhibition at 10 µM in assay [1] was 29.9%; in assay [2], 59.8%; in assay [3] it was 18.3%.

Take `COc1cc(-c2nc3sc4c(c3c(=O)n2Cc2ccccc2)CCC(C=O)=C4Sc2ccccc2)cc(OC)c1OC` [No. 8, 3-Benzyl-4-oxo-8-phenylsulfanyl-2-(3,4,5-trimethoxyphenyl)-3,4,5,6-tetrahydro-benzo[4,5]thieno[2,3-d]pyrimidine-7-carbaldehyde]: the inhibition at 1 µM in assay [1] amounted to 4.9%; in assay [2], 2.5%; in assay [3], 30.8%. In addition, the inhibition at 10 µM in assay [1] amounted to 17.1%; in assay [2], 4.8%; in assay [3], 27.4%.

For `O=c1c2c3c(sc2nc(-c2cc(O)c(O)c(O)c2)n1Cc1ccccc1)CCCC3` [No. 41, 3-Benzyl-2-(3,4,5-trihydroxyphenyl)-5,6,7,8-tetrahydro-3H-benzo[4,5]thieno[2,3-d]pyrimidin-4-one], the inhibition at 1 µM in assay [1] is 17.9%; in assay [2], 22.5%; in assay [3] it was 5.7%. The inhibition at 10 µM in assay [1] was 17.7%; in assay [2] it was 34.5%; in assay [3] it was 10%.

With `COc1cc(-c2nc3sc4c(c3c(=O)n2-c2ccccc2)CCCC4)cc(OC)c1OC` [No. 10, 3-Phenyl-2-(3,4,5-trimethoxyphenyl)-5,6,7,8-tetrahydro-3H-benzo[4,5]thieno[2,3-d]pyrimidin-4-one], the inhibition at 1 µM was 18.1% in assay [1], -4.4% in assay [2] and 12.7% in assay [3]. Further, the inhibition at 10 µM stood at 23.7% in assay [1], 10.9% in assay [2] and 35.1% in assay [3].

Consider `COc1cc(-c2nc3sc4c(O)cccc4c3c(=O)n2Cc2ccc(Br)o2)cc(OC)c1OC` [No. 122, 3-(5-Bromofuran-2-ylmethy1)-8-hydroxy-2-(3,4,5-trimethoxyphenyl)-3H-benzo[4,5]thieno[2,3-d]pyrimidin-4-one], for which the inhibition at 1 µM in assay [1] was determined as 15.4%; in assay [2] it was 9.4%; in assay [3], 13.9%. In addition, the inhibition at 10 µM is 26.2% in assay [1], 56.2% in assay [2] and 49% in assay [3].

`COCCn1c(-c2cc(OC)c(OC)c(OC)c2)nc2sc3c(c2c1=O)CCCC3=O` [No. 109, 3-(2-Methoxyethyl)-2-(3,4,5-trimethoxyphenyl)-6,7-dihydro-3H,5H-benzo[4,5]thieno[2,3-d]pyrimidine-4,8-dione]: the inhibition at 1 µM was 6% in assay [1], 0.6% in assay [2] and -0.2% in assay [3]. Besides, the inhibition at 10 µM in assay [1] was 9.7%; in assay [2], 11.6%; in assay [3] it was 20.7%.
